Data from patent US20110098177A1, “METHODS AND COMPOSITIONS OF PLANT MICRONUTRIENTS” (NOVUS INTERNATIONAL INC., priority 2006, published 2011).

Tests used:
Format in all cases: in vivo
Aristotle bell pepper = conditions: in vivo
Experimental: (§1) The following experiments were performed in a green house during the fall of 2007 at GCREC, Balm, University of Florida. Fifteen products, at 3 different application rates were examined. The plot size was 2-gallon pots. Crop set-up, procedures and variables were as follows.
(§2) Transplants of ‘Florida-47’ tomato and ‘Aristotle’ bell pepper plants in the 4-true leaf stage (about 6 inches tall) were planted in 2-gal pots on Aug. 27, 2007. Pots were filled with a commercially available planting medium. This medium was selected based on the mineral composition of the products to be applied without providing significant nutritional inputs to the crops. Irrigation was provided with drip lines delivering between 0.50 and 0.33 gal/day/pot for tomato and bell pepper, respectively, and the crops were irrigated three times per day. No foliar pesticides were necessary.
(§3) There were four control treatments corresponding to each target micronutrient in which non-Fe, non-Mn, non-Zn or non-Cu pots received all other essential nutrients under non-limiting conditions.
(§4) Treatments were applied at three rates (high, medium and low) obtained from the estimated concentration of Zn, Fe, Cu, and Mn foliarly-applied in tomato and bell pepper in field situations (Table 1). Products were weighed and dissolved in 200 ml of deionized water with a non-ionic surfactant and applied to the newly-matured open leaves of each crop at 3 and 7 weeks after transplant (WAT). Treated pots were isolated during application to avoid cross-contamination of other treatments.
(§5) Medium nutrient concentration was determined 1 week before treatment. The mineral composition of the medium was 26.8 ppm NH4—N, 49 ppm NO3—N, 15.8 ppm P, 91.2 ppm K, 82.3 ppm Ca, 58.2 ppm Mg, 23.9 ppm Na, 125.6 ppm S, 1.33 ppm Fe, 0.39 ppm Mn, 0.35 ppm Zn, 0.05 pp, Cu, 0.04 ppm B, 0 ppm Mo, 0.73 ppm Al, and 12.1 ppm Si. The pH of the medium was 5.36 and the electric conductivity was 1.38 mS/cm. The foliar tissue analysis was performed at 6 WAT and the concentration of N, P, K, Mg, Ca, S, B, Zn, Mn, Fe, and Cu was determined by a commercial laboratory. Plant toxicity was determined at 4 WAT by using a 0-10 visual scale, where 0=no visible damage and 10=total plant death. Marketable fruit weight was collected 2 times in bell pepper and 4 times in tomato following USDA standards.
(§6) Data were analyzed using a general linear model, and means were separated using orthogonal contrasts at the 5% significance level.

Florida-47 tomato = conditions: in vivo
Experimental: as §1, §2, §3, §4, §5, §6

Tygress tomato plants [1] = assay: Foliar nutrient concentration at 6 WAT, open-field tomato (Examples 7-10)
Experimental: (§7) The following experiments were performed in open-field plots during the spring of 2008 at GCREC, Balm, University of Florida. Four products delivering Zn (BIOX-Z), Mn (BIOX-M), Cu (BIOX-Cu), and Fe (BIOX-Fe) were compared to other micronutrient supplement formulations in tomato and bell pepper plants.
(§8) The plot sizes for the tomato plants were 30-ft plots (15 plants per plot) and 15-ft plots were used for the bell pepper plants (30 plants per plot). Crop set-up, procedures and variables were as follows.
(§9) Transplants of ‘Tygress’ tomato plants and ‘Patriot’ bell pepper plants in the 4-true leaf stage (about 6 inches tall) were planted in raised beds in open-field plots. The cross-section of each raised bed was 28 inches wide at the top, 32 inches wide at the base, and 8 inches tall. Irrigation and non-micronutrient fertilizer were provided daily through two drip lines per bed (0.45 gal/100 ft bed/min) at recommended rates for tomato and bell pepper production in Florida. […] The height of the plants for each of the treatment groups was measured at 3 weeks after transplantation (WAT), just prior to treatment with the experimental foliar fertilizers.
(§10) All foliar fertilizers except BIOX-CM were applied to the various treatment groups at 3 weeks after transplantation (WAT) and again at 5 WAT. The BIOX-CM treatment was applied at 4 and 5 WAT. The working water volume was 60 gal/acre and a non-ionic surfactant (Ad-Spray 80) was added in the amount of 2 pints/100 gal water. All plots were sprayed with sprayers pressurized at 25 psi and the canopies of both crops were covered with the micronutrient solutions. Treated plots were isolated during foliar fertilizer application to avoid the cross-contamination of other treatments on adjoining plots.
(§11) Leaf samples were collected from the most recent mature leaves from each plant at 6 WAT (2 weeks after initial treatment). Foliar tissue analysis was performed by a commercial laboratory to determine the concentration of N, P, K, Mg, Ca, B, Zn, Mn, Fe, and Cu. Tomato marketable fruit weights were collected at 10 and 12 WAT, and the fruits were graded according to USDA standards. Pepper marketable fruit weights were determined beginning at 5 WAT over 5 weekly harvests. Fruit mineral analysis (N, P, K, Mg, Ca, B, Zn, Mn, Fe, and Cu) was performed on samples from the tomato harvest.
(§12) The experimental design was a randomized complete block design with 5 replications for each treatment. All comparison data were analyzed using a general linear model and the means of each treatment were separated with a Fisher's protected LSD test at the 5% significance level.

[2] = test system: Patriot bell pepper plants; assay: Foliar nutrient concentration at 6 WAT, open-field bell pepper (Examples 7-10)
Experimental: as §7, §8, §9, §10, §11, §12

Tygress tomato plants [3] = assay: Marketable yield, open-field tomato (Examples 7-10)
Experimental: as §7, §8, §9, §10, §11, §12

[4] = test system: Patriot bell pepper plants; assay: Marketable yield, open-field bell pepper (Examples 7-10)
Experimental: as §7, §8, §9, §10, §11, §12

Tygress tomato plants [5] = assay: Nutrient concentration of tomato fruits at 10 WAT, open field (Examples 7-10)
Experimental: as §7, §8, §9, §10, §11, §12

[6] = 6 WAT, open field, product rate as Table 17
[7] = open field, lb/acre/season: BIOX-Z 1.3, Cu 6.7, M 23.0, Fe 3.2, INC 4.0, INZ 0.6, CM 10.0, GZ 1.0, GF 4.0, EDZ 1.4, EDM 23.0
[8] = 10 WAT, open field, product rate as Table 17

iron glycinate [BIOX-GF]
Pepper toxicity (Aristotle bell pepper): 0 | Tomato toxicity (Florida-47 tomato): 0 | Foliar B concentration of tomato plants (Tygress tomato plants [1]; in vivo): 21 ppm | Foliar Ca concentration of tomato plants (Tygress tomato plants [1]; in vivo): 0.2% | Foliar Cu concentration of tomato plants (Tygress tomato plants [1]; in vivo): 22 ppm | Foliar Fe concentration of tomato plants (Tygress tomato plants [1]; in vivo): 85 ppm | Foliar K concentration of tomato plants (Tygress tomato plants [1]; in vivo): 8.5% | Foliar Mg concentration of tomato plants (Tygress tomato plants [1]; in vivo): 0.38% | Foliar Mn concentration of tomato plants (Tygress tomato plants [1]; in vivo): 42 ppm | Foliar N concentration of tomato plants (Tygress tomato plants [1]; in vivo): 4.3% | Foliar P concentration of tomato plants (Tygress tomato plants [1]; in vivo): 0.71% | Foliar Zn concentration of tomato plants (Tygress tomato plants [1]; in vivo): 332 ppm | Foliar nutrient concentration: B ([2]; in vivo): 43 ppm | Foliar nutrient concentration: Ca ([2]; in vivo): 1.8% | Foliar nutrient concentration: Cu ([2]; in vivo): 453 ppm | Foliar nutrient concentration: Fe ([2]; in vivo): 305 ppm | Foliar nutrient concentration: K ([2]; in vivo): 5.7% | Foliar nutrient concentration: Mg ([2]; in vivo): 0.58% | Foliar nutrient concentration: Mn ([2]; in vivo): 266 ppm | Foliar nutrient concentration: N ([2]; in vivo): 5.0% | Foliar nutrient concentration: P ([2]; in vivo): 0.21% | Foliar nutrient concentration: Zn ([2]; in vivo): 322 ppm | Marketable yield, Tomato (Tygress tomato plants [3]; in vivo): 18.5 a ton/acre | Tomato marketable yield compared to control, statement (Tygress tomato plants [3]; in vivo): significantly higher tomato marketable yield compared to control | Marketable yield, Bell Pepper ([4]; in vivo): 7.0 ton/acre | Nutrient concentration of tomato fruits: B (Tygress tomato plants [5]; in vivo): 21 ppm | Nutrient concentration of tomato fruits: Ca (Tygress tomato plants [5]; in vivo): 0.2% | Nutrient concentration of tomato fruits: Cu (Tygress tomato plants [5]; in vivo): 22 ppm | Nutrient concentration of tomato fruits: Fe (Tygress tomato plants [5]; in vivo): 85 ppm | Nutrient concentration of tomato fruits: K (Tygress tomato plants [5]; in vivo): 8.5% | Nutrient concentration of tomato fruits: Mg (Tygress tomato plants [5]; in vivo): 0.38% | Nutrient concentration of tomato fruits: Mn (Tygress tomato plants [5]; in vivo): 42 ppm | Nutrient concentration of tomato fruits: N (Tygress tomato plants [5]; in vivo): 4.3% | Nutrient concentration of tomato fruits: P (Tygress tomato plants [5]; in vivo): 0.71% | Nutrient concentration of tomato fruits: Zn (Tygress tomato plants [5]; in vivo): 332 ppm

manganese citrate [BIOX-CM]
Foliar concentration of Mn of tomato plants, statement (Tygress tomato plants [1]; 6 WAT, open field): significantly higher foliar concentration of Mn compared to control | Foliar B concentration of tomato plants (Tygress tomato plants [1]; [6]): 43 ppm | Foliar Ca concentration of tomato plants (Tygress tomato plants [1]; [6]): 1.8% | Foliar Cu concentration of tomato plants (Tygress tomato plants [1]; [6]): 326 ppm | Foliar Fe concentration of tomato plants (Tygress tomato plants [1]; [6]): 85 ppm | Foliar K concentration of tomato plants (Tygress tomato plants [1]; [6]): 5.0 b % | Foliar Mg concentration of tomato plants (Tygress tomato plants [1]; [6]): 0.66% | Foliar Mn concentration of tomato plants (Tygress tomato plants [1]; [6]): 272 b ppm | Foliar N concentration of tomato plants (Tygress tomato plants [1]; [6]): 5.1% | Foliar P concentration of tomato plants (Tygress tomato plants [1]; [6]): 0.24 a % | Foliar Zn concentration of tomato plants (Tygress tomato plants [1]; [6]): 242 b ppm | Foliar B concentration of bell pepper plants [2, 6]: 63 ppm | Foliar Ca concentration of bell pepper plants [2, 6]: 4.2% | Foliar Cu concentration of bell pepper plants [2, 6]: 364 ppm | Foliar Fe concentration of bell pepper plants [2, 6]: 121 ppm | Foliar K concentration of bell pepper plants [2, 6]: 3.6% | Foliar Mg concentration of bell pepper plants [2, 6]: 0.47% | Foliar Mn concentration of bell pepper plants [2, 6]: 594 ppm | Foliar N concentration of bell pepper plants [2, 6]: 4.3% | Foliar P concentration of bell pepper plants [2, 6]: 0.23% | Foliar Zn concentration of bell pepper plants [2, 6]: 44 ppm | Marketable yield, Tomato (Tygress tomato plants [3]; [7]): 13.9 b ton/acre | Marketable yield, Bell Pepper [4, 7]: 8.0 ton/acre | B concentration of tomato fruits (Tygress tomato plants [5]; [8]): 22 ppm | Ca concentration of tomato fruits (Tygress tomato plants [5]; [8]): 0.2% | Cu concentration of tomato fruits (Tygress tomato plants [5]; [8]): 21 b ppm | Fe concentration of tomato fruits (Tygress tomato plants [5]; [8]): 73 b ppm | K concentration of tomato fruits (Tygress tomato plants [5]; [8]): 7.9% | Mg concentration of tomato fruits (Tygress tomato plants [5]; [8]): 0.37% | Mn concentration of tomato fruits (Tygress tomato plants [5]; [8]): 40 b ppm | N concentration of tomato fruits (Tygress tomato plants [5]; [8]): 4.2% | P concentration of tomato fruits (Tygress tomato plants [5]; [8]): 0.57% | Zn concentration of tomato fruits (Tygress tomato plants [5]; [8]): 217 b ppm

NCC(=O)[O-].NCC(=O)[O-].[Zn+2] [BIOX-GZ, zinc glycinate]
Pepper toxicity (Aristotle bell pepper): 0 | Tomato toxicity (Florida-47 tomato): 0 | Foliar B concentration of tomato plants (Tygress tomato plants [1]; in vivo): 44 ppm | Foliar Ca concentration of tomato plants (Tygress tomato plants [1]; in vivo): 1.8% | Foliar Cu concentration of tomato plants (Tygress tomato plants [1]; in vivo): 482 ppm | Foliar Fe concentration of tomato plants (Tygress tomato plants [1]; in vivo): 94 ppm | Foliar K concentration of tomato plants (Tygress tomato plants [1]; in vivo): 5.0% | Foliar Mg concentration of tomato plants (Tygress tomato plants [1]; in vivo): 0.61% | Foliar Mn concentration of tomato plants (Tygress tomato plants [1]; in vivo): 278 ppm | Foliar N concentration of tomato plants (Tygress tomato plants [1]; in vivo): 4.6% | Foliar P concentration of tomato plants (Tygress tomato plants [1]; in vivo): 0.22% | Foliar Zn concentration of tomato plants (Tygress tomato plants [1]; in vivo): 369 b ppm | Foliar B concentration of bell pepper plants ([2]; in vivo): 59 ppm | Foliar Ca concentration of bell pepper plants ([2]; in vivo): 4.2% | Foliar Cu concentration of bell pepper plants ([2]; in vivo): 429 ppm | Foliar Fe concentration of bell pepper plants ([2]; in vivo): 118 ppm | Foliar K concentration of bell pepper plants ([2]; in vivo): 3.4% | Foliar Mg concentration of bell pepper plants ([2]; in vivo): 0.49% | Foliar Mn concentration of bell pepper plants ([2]; in vivo): 282 ppm | Foliar N concentration of bell pepper plants ([2]; in vivo): 4.4% | Foliar P concentration of bell pepper plants ([2]; in vivo): 0.24% | Foliar Zn concentration of bell pepper plants ([2]; in vivo): 145 a ppm | Foliar Zn concentration of bell pepper plants compared to control, statement ([2]; in vivo): significantly higher foliar concentration of Zn | Marketable yield, Tomato (Tygress tomato plants [3]; in vivo): 16.8 ton/acre | Tomato marketable yield compared to control, statement (Tygress tomato plants [3]; in vivo): significantly higher than the control tomato harvest | Marketable yield, Bell Pepper ([4]; in vivo): 6.3 ton/acre | B concentration of tomato fruits (Tygress tomato plants [5]; in vivo): 23 ppm | Ca concentration of tomato fruits (Tygress tomato plants [5]; in vivo): 0.2% | Cu concentration of tomato fruits (Tygress tomato plants [5]; in vivo): 23 ppm | Fe concentration of tomato fruits (Tygress tomato plants [5]; in vivo): 87 ppm | K concentration of tomato fruits (Tygress tomato plants [5]; in vivo): 7.8% | Mg concentration of tomato fruits (Tygress tomato plants [5]; in vivo): 0.37% | Mn concentration of tomato fruits (Tygress tomato plants [5]; in vivo): 43 ppm | N concentration of tomato fruits (Tygress tomato plants [5]; in vivo): 4.3% | P concentration of tomato fruits (Tygress tomato plants [5]; in vivo): 0.61% | Zn concentration of tomato fruits (Tygress tomato plants [5]; in vivo): 379 ppm
